Source: article PMC9649518, “Knockout of ABC transporters by CRISPR/Cas9 contributes to reliable and accurate transporter substrate identification for drug discovery” (Frontiers in Pharmacology, 2022)
Where two headings read alike, the source gives them in different places.

Legend:
[1] = tested on: Caco^MRP2−/−BCRP−/− cells; test: Bidirectional transport assay across MRP2/BCRP double KO Caco-2 monolayers; details: Caco^MRP2−/−BCRP−/−, 5 μM substrate, n = 3
Caco^Pgp−/−BCRP−/− cells [2] = test: Bidirectional transport assay across P-gp/BCRP double KO Caco-2 monolayers; details: Caco^Pgp−/−BCRP−/−, 5 μM substrate, n = 3
Caco-2 WT cells [3] = test: Bidirectional transport assay across Caco-2 WT monolayers; details: WT Caco-2, 5 μM substrate, n = 3; for Papp A-to-B / Papp B-to-A: 1 h, 37°C, HBSS pH 7.4; for Efflux ratio: Papp(B-to-A)/Papp(A-to-B)
[4] = tested on: MRP2 single- and double-KO Caco-2 cell lines; test: Bidirectional transport assay, MRP2 single- and double-KO cell lines taken together; details: 5 μM substrate
Caco^BCRP−/− cells [5] = test: Bidirectional transport assay across BCRP KO Caco-2 monolayers; details: Caco^BCRP−/−, 5 μM substrate, n = 3
Caco^Pgp−/− cells [6] = test: Bidirectional transport assay across P-gp KO Caco-2 monolayers; details: Caco^Pgp−/−, 5 μM substrate, n = 3
Caco^MRP2−/− cells [7] = test: Bidirectional transport assay across MRP2 KO Caco-2 monolayers; details: Caco^MRP2−/−, 5 μM substrate, n = 3
Caco^Pgp−/−MRP2−/− cells [8] = test: Bidirectional transport assay across P-gp/MRP2 double KO Caco-2 monolayers; details: Caco^Pgp−/−MRP2−/−, 5 μM substrate, n = 3
[9] = tested on: BCRP single- and double-KO Caco-2 cell lines; test: Bidirectional transport assay, BCRP single- and double-KO cell lines taken together; details: 5 μM substrate
[10] = Bidirectional transport assay across MRP2/BCRP double KO Caco-2 monolayers; details: human; for Papp A→B at 1 h, 5 μM: pH 7.4, Papp A-to-B, Caco^MRP2−/−BCRP−/−, 5 μM substrate, 37°C, HBSS pH 7.4, n = 3
[11] = Bidirectional transport assay across P-gp/BCRP double KO Caco-2 monolayers; details: human, pH 7.4
[12] = Bidirectional transport assay across Caco-2 WT monolayers; details: human
[13] = Bidirectional transport assay across BCRP KO Caco-2 monolayers; details: human; for Papp A→B at 1 h, 5 μM / Papp B→A at 1 h, 5 μM: pH 7.4
[14] = tested on: BCRP, MRP2, and MRP2/BCRP knock-out cell lines mediated by ZFN; set-up: method as in Sampson et al., 2015; details: ref Sampson et al., 2015, cited from earlier work
[15] = Bidirectional transport assay, P-gp single- and double-KO cells taken together; assay type: in vitro ADME; details: human, pH 7.4, 5 μM substrate
Protocol: (§1) The medium was replaced every second day.
(§2) All these studies were conducted by following similar procedures. […] Then, HBSS was aspirated from both sides.
(§3) The flow rate was 0.3 mL/min.

[16] = Bidirectional transport assay across P-gp KO Caco-2 monolayers; details: human, pH 7.4
[17] = Bidirectional transport assay across MRP2 KO Caco-2 monolayers; details: human, pH 7.4
[18] = Bidirectional transport assay across P-gp/MRP2 double KO Caco-2 monolayers; details: human, pH 7.4
[19] = Bidirectional transport assay, Caco^BCRP−/− and Caco^MRP2−/− cells taken together; assay type: in vitro ADME; details: human
Protocol: as §1, §2, §3

P-gp = tested on: P-gp; set-up: method as in Mease et al., 2012; details: 10 µM inhibitor; Caco-2; ref Mease et al., 2012; cited from earlier work
BCRP transporter = tested on: BCRP transporter; set-up: method as in Mease et al., 2012; details: 1 µM inhibitor; Caco-2; ref Mease et al., 2012; cited from earlier work
Caco^Pgp−/−BCRP−/− cells [20] = tested on: Caco^Pgp−/−BCRP−/− cells
Caco^Pgp−/−MRP2−/− cells [21] = tested on: Caco^Pgp−/−MRP2−/− cells
Caco^BCRP−/− cells [22] = tested on: Caco^BCRP−/− cells
Caco^Pgp−/− cells [23] = tested on: Caco^Pgp−/− cells
Caco^MRP2−/− cells [24] = tested on: Caco^MRP2−/− cells
[25] = tested on: Caco^MRP2−/−BCRP−/− cells
Caco-2 WT cells [26] = tested on: Caco-2 WT cells

C[C@]12CC[C@@H]3c4ccc(OS(=O)(=O)O)cc4CC[C@H]3[C@@H]1CCC2=O [Estrone 3-Sulfate, estrone 3-sulfate]
Papp A-to-B ([1]; 1 h, 37°C, HBSS pH 7.4): 0.97 ± 0.04 ×10^−6cm/s
Papp B-to-A ([1]; 1 h, 37°C, HBSS pH 7.4): 0.92 ± 0.49 ×10^−6cm/s
Efflux ratio [1]: 0.96 ± 0.51
Papp A-to-B (Caco^Pgp−/−BCRP−/− cells [2]; 1 h, 37°C, HBSS pH 7.4): 1.88 ± 0.02 ×10^−6cm/s
Papp B-to-A (Caco^Pgp−/−BCRP−/− cells [2]; 1 h, 37°C, HBSS pH 7.4): 1.54 ± 0.30 ×10^−6cm/s
Efflux ratio (Caco^Pgp−/−BCRP−/− cells [2]): 0.820 ± 0.15
Papp A-to-B (Caco-2 WT cells [3]): 0.67 ± 0.12 ×10^−6cm/s
Papp B-to-A (Caco-2 WT cells [3]): 10.87 ± 0.20 ×10^−6cm/s
Efflux ratio (Caco-2 WT cells [3]): 16.65 ± 2.90
Efflux ratio (Caco-2 WT cells [3]; listed as E3S): 16.6
Efflux ratio compared with WT [4]: reduced significantly
Papp A-to-B (Caco^BCRP−/− cells [5]; 1 h, 37°C, HBSS pH 7.4): 1.15 ± 0.11 ×10^−6cm/s
Papp B-to-A (Caco^BCRP−/− cells [5]; 1 h, 37°C, HBSS pH 7.4): 1.58 ± 0.08 ×10^−6cm/s
Efflux ratio (Caco^BCRP−/− cells [5]): 1.36 ± 0.18
Papp A-to-B (Caco^Pgp−/− cells [6]; 1 h, 37°C, HBSS pH 7.4): 1.53 ± 0.24 ×10^−6cm/s
Papp B-to-A (Caco^Pgp−/− cells [6]; 1 h, 37°C, HBSS pH 7.4): 22.48 ± 1.01 ×10^−6cm/s
Efflux ratio (Caco^Pgp−/− cells [6]): 14.90 ± 1.63
Papp A-to-B (Caco^MRP2−/− cells [7]; 1 h, 37°C, HBSS pH 7.4): 2.91 ± 0.32 ×10^−6cm/s
Papp B-to-A (Caco^MRP2−/− cells [7]; 1 h, 37°C, HBSS pH 7.4): 15.32 ± 3.10 ×10^−6cm/s
Efflux ratio (Caco^MRP2−/− cells [7]): 5.24 ± 0.59
Papp A-to-B (Caco^Pgp−/−MRP2−/− cells [8]; 1 h, 37°C, HBSS pH 7.4): 3.23 ± 0.08 ×10^−6cm/s
Papp B-to-A (Caco^Pgp−/−MRP2−/− cells [8]; 1 h, 37°C, HBSS pH 7.4): 25.34 ± 2.06 ×10^−6cm/s
Efflux ratio (Caco^Pgp−/−MRP2−/− cells [8]): 7.830 ± 0.46
Efflux ratio [9]: 0.8–1.3

C[C@H]1O[C@@H](O[C@H]2[C@@H](O)C[C@H](O[C@H]3[C@@H](O)C[C@H](O[C@H]4CC[C@@]5(C)[C@H](CC[C@@H]6[C@@H]5C[C@@H](O)[C@]5(C)[C@@H](C7=CC(=O)OC7)CC[C@]65O)C4)O[C@@H]3C)O[C@@H]2C)C[C@H](O)[C@@H]1O [Digoxin]
Papp B→A at 1 h, 5 μM ([10]; pH 7.4): 17.9 ± 0.63 ×10⁻⁶ cm/s
efflux ratio at 1 h, 5 μM ([10]; pH 7.4): 9.36 ± 3.17
Papp A→B at 1 h, 5 μM [10]: 2.03 ± 0.55 ×10⁻⁶ cm/s
Papp A→B at 1 h, 5 μM [11]: 2.42 ± 0.64 ×10⁻⁶ cm/s
Papp B→A at 1 h, 5 μM [11]: 2.08 ± 0.12 ×10⁻⁶ cm/s
efflux ratio at 1 h, 5 μM [11]: 0.9 ± 0.21
Efflux ratio (Caco-2 WT cells [3]): 6.38 ± 1.21
Papp A→B at 1 h, 5 μM ([12]; Caco-2, pH 7.4): 1.48 ± 0.21 ×10⁻⁶ cm/s
Papp B→A at 1 h, 5 μM ([12]; Caco-2, pH 7.4): 9.33 ± 1.34 ×10⁻⁶ cm/s
efflux ratio at 1 h, 5 μM ([12]; Caco-2, pH 7.4, Efflux ratio, WT Caco-2, 5 μM substrate, Papp(B-to-A)/Papp(A-to-B), n = 3): 6.4
Papp A→B at 1 h, 5 μM [13]: 1.66 ± 0.42 ×10⁻⁶ cm/s
Papp B→A at 1 h, 5 μM [13]: 14.8 ± 1.85 ×10⁻⁶ cm/s
efflux ratio at 1 h, 5 μM ([13]; pH 7.4, Efflux ratio, Caco^BCRP−/−, 5 μM substrate, n = 3): 9.11 ± 1.66
Papp A-to-B ([14]; BCRP, MRP2, and MRP2/BCRP knock-out cell lines mediated by ZFN): ~ 0.25 × 10^–6 cm/s
Papp A-to-B ([14]; starting value before knock-out ('from')): 0.99 × 10^–6 cm/s
efflux ratio at 1 h, 5 μM [15]: 1
Papp A→B at 1 h, 5 μM [16]: 1.42 ± 0.2 ×10⁻⁶ cm/s
Papp B→A at 1 h, 5 μM [16]: 1.67 ± 0.23 ×10⁻⁶ cm/s
efflux ratio at 1 h, 5 μM [16]: 1.2 ± 0.21
Papp A→B at 1 h, 5 μM [17]: 2.05 ± 0.51 ×10⁻⁶ cm/s
Papp B→A at 1 h, 5 μM [17]: 17.6 ± 1.13 ×10⁻⁶ cm/s
efflux ratio at 1 h, 5 μM [17]: 9.08 ± 2.87
Papp A→B at 1 h, 5 μM [18]: 1.95 ± 0.92 ×10⁻⁶ cm/s
Papp B→A at 1 h, 5 μM [18]: 1.87 ± 0.4 ×10⁻⁶ cm/s
efflux ratio at 1 h, 5 μM [18]: 1.05 ± 0.29

CC(C)CN(C[C@@H](O)[C@H](Cc1ccccc1)NC(=O)O[C@H]1CO[C@H]2OCC[C@H]21)S(=O)(=O)c1ccc(N)cc1 [Darunavir]
Papp A-to-B ([1]; 1 h, 37°C, HBSS pH 7.4): 4.43 ± 0.63 ×10^−6cm/s
Papp B→A at 1 h, 5 μM ([10]; pH 7.4): 27 ± 0.79 ×10⁻⁶ cm/s
Papp A→B at 1 h, 5 μM [10]: 4.4 ×10⁻⁶ cm/s
Papp A→B at 1 h, 5 μM [11]: 12.6 ± 1.31 ×10⁻⁶ cm/s
Papp B→A at 1 h, 5 μM [11]: 11.5 ± 0.38 ×10⁻⁶ cm/s
Papp A-to-B (Caco-2 WT cells [3]): 2.65 ± 0.22 ×10^−6cm/s
Papp B-to-A (Caco-2 WT cells [3]): 26.59 ± 2.06 ×10^−6cm/s
Papp A→B at 1 h, 5 μM ([12]; Caco-2, pH 7.4, Papp A-to-B, WT Caco-2, 5 μM substrate, 1 h, 37°C, HBSS pH 7.4, n = 3): 2.6 ×10⁻⁶ cm/s
Papp B→A at 1 h, 5 μM ([12]; Caco-2, pH 7.4, Papp B-to-A, WT Caco-2, 5 μM substrate, 1 h, 37°C, HBSS pH 7.4, n = 3): 26.6 ×10⁻⁶ cm/s
Papp A→B at 1 h, 5 μM [13]: 1.75 ± 0.13 ×10⁻⁶ cm/s
Papp B→A at 1 h, 5 μM [13]: 34.32 ± 0.19 ×10⁻⁶ cm/s
Papp A→B at 1 h, 5 μM [16]: 15.1 ± 0.68 ×10⁻⁶ cm/s
Papp B→A at 1 h, 5 μM [16]: 13.6 ± 0.8 ×10⁻⁶ cm/s
Papp A→B at 1 h, 5 μM [17]: 1.9 ± 0.14 ×10⁻⁶ cm/s
Papp B→A at 1 h, 5 μM [17]: 29.84 ± 0.24 ×10⁻⁶ cm/s
Papp A→B at 1 h, 5 μM [18]: 10.1 ± 0.44 ×10⁻⁶ cm/s
Papp B→A at 1 h, 5 μM [18]: 10.4 ± 0.2 ×10⁻⁶ cm/s
Papp A→B at 1 h, 5 μM ([19]; pH 7.4, read-out: Papp (A-to-B) permeability): 1.7 to 1.8 ×10⁻⁶ cm/s
Papp B→A at 1 h, 5 μM ([19]; pH 7.4, read-out: Papp (B-to-A) permeability): 29.8 to 34.3 ×10⁻⁶ cm/s

COc1ccc2c3c([nH]c2c1)[C@H](C=C(C)C)N1C(=O)[C@@H]2CCCN2C(=O)[C@@H]1C3 [fumitremorgin C]
Inhibition of P-gp (P-gp): only partially inhibited
Inhibition of the BCRP transporter (BCRP transporter): selectively inhibited

5-(and-6)-carboxy-2′,7′-dichlorofluorescein [CDCF]
Papp A-to-B (Caco^Pgp−/−BCRP−/− cells [20]): 2.02 ± 0.20 ×10^−6cm/s
Papp B-to-A (Caco^Pgp−/−BCRP−/− cells [20]): 9.42 ± 0.55 ×10^−6cm/s
Papp A-to-B (Caco^Pgp−/−MRP2−/− cells [21]): 2.41 ± 0.55 ×10^−6cm/s
Papp B-to-A (Caco^Pgp−/−MRP2−/− cells [21]): 1.64 ± 0.46 ×10^−6cm/s
Papp A-to-B (Caco^BCRP−/− cells [22]): 2.14 ± 0.08 ×10^−6cm/s
Papp B-to-A (Caco^BCRP−/− cells [22]): 10.63 ± 0.96 ×10^−6cm/s
Papp A-to-B (Caco^Pgp−/− cells [23]): 1.94 ± 0.10 ×10^−6cm/s
Papp B-to-A (Caco^Pgp−/− cells [23]): 11.95 ± 1.61 ×10^−6cm/s
Papp A-to-B (Caco^MRP2−/− cells [24]): 2.33 ± 0.62 ×10^−6cm/s
Papp B-to-A (Caco^MRP2−/− cells [24]): 1.10 ± 0.13 ×10^−6cm/s
Papp A-to-B [25]: 3.48 ± 0.51 ×10^−6cm/s
Papp B-to-A [25]: 3.05 ± 0.80 ×10^−6cm/s
Papp A-to-B (Caco-2 WT cells [26]): 1.05 ± 0.34 ×10^−6cm/s
Papp B-to-A (Caco-2 WT cells [26]): 8.25 ± 0.63 ×10^−6cm/s
